Source: ChEMBL document CHEMBL4414672, “Synthesis of certain benzothieno[3,2-d]pyrimidine derivatives as a selective SIRT2 inhibitors” (Eur J Med Chem, 2020)

Tests used:
Format in all cases: functional
[1] = system: MCF7; experiment: Growth inhibition of human MCF7 cells at 10^-5 M incubated for 48 hrs by sulforhodamine B assay; details: MCF7, 48 h, read-out: GI
[2] = system: PC-3; experiment: Growth inhibition of human PC3 cells at 10^-5 M incubated for 48 hrs by sulforhodamine B assay; details: PC-3, 48 h, read-out: GI
[3] = system: OVCAR-3; experiment: Growth inhibition of human OVCAR3 cells at 10^-5 M incubated for 48 hrs by sulforhodamine B assay; details: OVCAR-3, 48 h, read-out: GI
[4] = system: IGROV-1; experiment: Growth inhibition of human IGROV1 cells at 10^-5 M incubated for 48 hrs by sulforhodamine B assay; details: IGROV-1, 48 h, read-out: GI
[5] = system: COLO 205; experiment: Growth inhibition of human COLO205 cells at 10^-5 M incubated for 48 hrs by sulforhodamine B assay; details: COLO 205, 48 h, read-out: GI
[6] = system: SK-OV-3; experiment: Growth inhibition of human SKOV3 cells at 10^-5 M incubated for 48 hrs by sulforhodamine B assay; details: SK-OV-3, 48 h, read-out: GI
[7] = system: EKVX; experiment: Growth inhibition of human EKVX cells at 10^-5 M incubated for 48 hrs by sulforhodamine B assay; details: read-out: GI
[8] = system: SW-620; experiment: Growth inhibition of human SW620 cells at 10^-5 M incubated for 48 hrs by sulforhodamine B assay; details: SW-620, 48 h, read-out: GI
[9] = system: OVCAR-8; experiment: Growth inhibition of human OVCAR8 cells at 10^-5 M incubated for 48 hrs by sulforhodamine B assay; details: OVCAR-8, 48 h, read-out: GI
[10] = system: Malme-3M; experiment: Growth inhibition of human MALME-3M cells at 10^-5 M incubated for 48 hrs by sulforhodamine B assay; details: read-out: GI
[11] = system: RXF 393; experiment: Growth inhibition of human RXF393 cells at 10^-5 M incubated for 48 hrs by sulforhodamine B assay; details: RXF 393, 48 h, read-out: GI
[12] = system: K562; experiment: Growth inhibition of human K562 cells at 10^-5 M incubated for 48 hrs by sulforhodamine B assay; details: K562, 48 h, read-out: GI
[13] = system: HT-29; experiment: Growth inhibition of human HT-29 cells at 10^-5 M incubated for 48 hrs by sulforhodamine B assay; details: HT-29, 48 h, read-out: GI
[14] = system: DU-145; experiment: Growth inhibition of human DU145 cells at 10^-5 M incubated for 48 hrs by sulforhodamine B assay; details: DU-145, 48 h, read-out: GI
[15] = system: A498; experiment: Growth inhibition of human A498 cells at 10^-5 M incubated for 48 hrs by sulforhodamine B assay; details: A498, 48 h, read-out: GI
[16] = system: SK-MEL-5; experiment: Growth inhibition of human SK-MEL-5 cells at 10^-5 M incubated for 48 hrs by sulforhodamine B assay; details: SK-MEL-5, 48 h, read-out: GI
[17] = system: TK-10; experiment: Growth inhibition of human TK10 cells at 10^-5 M incubated for 48 hrs by sulforhodamine B assay; details: TK-10, 48 h, read-out: GI
[18] = system: M14; experiment: Growth inhibition of human M14 cells at 10^-5 M incubated for 48 hrs by sulforhodamine B assay; details: M14, 48 h, read-out: GI
[19] = system: BT-549; experiment: Growth inhibition of human BT549 cells at 10^-5 M incubated for 48 hrs by sulforhodamine B assay; details: BT-549, 48 h, read-out: GI
[20] = system: NCI/ADR-RES; experiment: Growth inhibition of human NCI/ADR-RES cells at 10^-5 M incubated for 48 hrs by sulforhodamine B assay; details: read-out: GI
[21] = system: UACC-257; experiment: Growth inhibition of human UACC257 cells at 10^-5 M incubated for 48 hrs by sulforhodamine B assay; details: UACC-257, 48 h, read-out: GI
[22] = system: NCI-H226; experiment: Growth inhibition of human NCI-H226 cells at 10^-5 M incubated for 48 hrs by sulforhodamine B assay; details: NCI-H226, 48 h, read-out: GI
[23] = system: Hs-578T; experiment: Growth inhibition of human Hs 578T cells at 10^-5 M incubated for 48 hrs by sulforhodamine B assay; details: read-out: GI
[24] = system: MDA-MB-468; experiment: Growth inhibition of human MDA-MB-468 cells at 10^-5 M incubated for 48 hrs by sulforhodamine B assay; details: MDA-MB-468, 48 h, read-out: GI
[25] = system: UACC-62; experiment: Growth inhibition of human UACC62 cells at 10^-5 M incubated for 48 hrs by sulforhodamine B assay; details: UACC-62, 48 h, read-out: GI
[26] = system: U-251; experiment: Growth inhibition of human U251 cells at 10^-5 M incubated for 48 hrs by sulforhodamine B assay; details: U-251, 48 h, read-out: GI
[27] = system: OVCAR-5; experiment: Growth inhibition of human OVCAR5 cells at 10^-5 M incubated for 48 hrs by sulforhodamine B assay; details: OVCAR-5, 48 h, read-out: GI
[28] = system: SN12C; experiment: Growth inhibition of human SN12C cells at 10^-5 M incubated for 48 hrs by sulforhodamine B assay; details: read-out: GI
[29] = system: CAKI-1; experiment: Growth inhibition of human Caki1 cells at 10^-5 M incubated for 48 hrs by sulforhodamine B assay; details: CAKI-1, 48 h, read-out: GI
[30] = system: SR; experiment: Growth inhibition of human SR cells at 10^-5 M incubated for 48 hrs by sulforhodamine B assay; details: read-out: GI
[31] = system: HCC 2998; experiment: Growth inhibition of human HCC2998 cells at 10^-5 M incubated for 48 hrs by sulforhodamine B assay; details: HCC 2998, 48 h, read-out: GI
[32] = system: NCI-H322M; experiment: Growth inhibition of human NCI-H322M cells at 10^-5 M incubated for 48 hrs by sulforhodamine B assay; details: read-out: GI
[33] = system: ACHN; experiment: Growth inhibition of human ACHN cells at 10^-5 M incubated for 48 hrs by sulforhodamine B assay; details: read-out: GI
[34] = system: A549; experiment: Growth inhibition of human A549/ATCC cells at 10^-5 M incubated for 48 hrs by sulforhodamine B assay; details: A549, 48 h, read-out: GI
[35] = system: MDA-MB-231; experiment: Growth inhibition of human MDA-MB-231 cells at 10^-5 M incubated for 48 hrs by sulforhodamine B assay; details: MDA-MB-231, 48 h, read-out: GI
[36] = system: HOP-92; experiment: Growth inhibition of human HOP92 cells at 10^-5 M incubated for 48 hrs by sulforhodamine B assay; details: HOP-92, 48 h, read-out: GI
[37] = system: NCI-H23; experiment: Growth inhibition of human NCI-H23 cells at 10^-5 M incubated for 48 hrs by sulforhodamine B assay; details: NCI-H23, 48 h, read-out: GI
[38] = system: SNB-75; experiment: Growth inhibition of human SNB75 cells at 10^-5 M incubated for 48 hrs by sulforhodamine B assay; details: SNB-75, 48 h, read-out: GI
[39] = system: SF-268; experiment: Growth inhibition of human SF268 cells at 10^-5 M incubated for 48 hrs by sulforhodamine B assay; details: SF-268, 48 h, read-out: GI

| SMILES | inhibition of growth at 10 µM [1] | inhibition of growth at 10 µM [2] | inhibition of growth at 10 µM [3] | inhibition of growth at 10 µM [4] | inhibition of growth at 10 µM [5] | inhibition of growth at 10 µM [6] | inhibition of growth at 10 µM [7] | inhibition of growth at 10 µM [8] | inhibition of growth at 10 µM [9] | inhibition of growth at 10 µM [10] | inhibition of growth at 10 µM [11] | inhibition of growth at 10 µM [12] | inhibition of growth at 10 µM [13] | inhibition of growth at 10 µM [14] | inhibition of growth at 10 µM [15] | inhibition of growth at 10 µM [16] | inhibition of growth at 10 µM [17] | inhibition of growth at 10 µM [18] | inhibition of growth at 10 µM [19] | inhibition of growth at 10 µM [20] | also measured |
| --- | --- | --- | --- | --- | --- | --- | --- | --- | --- | --- | --- | --- | --- | --- | --- | --- | --- | --- | --- | --- | --- |
| O=[N+]([O-])c1cccc(C2NC(N3CCOCC3)=Nc3c2sc2ccc(Cl)cc32)c1 (configuration not stated) | 23.1% | 23% | -0.17% | 25% | -6.02% | -6.18% | 16.4% | -1.57% | -3% | 4.08% | -8.09% | -3.76% | -2.72% | -13.7% | 1.88% | 4.38% | -10.7% | -1.17% | -6.2% | -3.21% | inhibition of growth at 10 µM [21]: -6.32%; inhibition of growth at 10 µM [22]: 14.4%; inhibition of growth at 10 µM [23]: 1.47%; inhibition of growth at 10 µM [24]: -5.77%; inhibition of growth at 10 µM [25]: 8.77%; inhibition of growth at 10 µM [26]: 1.11%; inhibition of growth at 10 µM [27]: -1.26%; inhibition of growth at 10 µM [28]: 3.85%; inhibition of growth at 10 µM [29]: 27.7%; inhibition of growth at 10 µM [30]: 1.5%; inhibition of growth at 10 µM [31]: -6.02%; inhibition of growth at 10 µM [32]: 6.39%; inhibition of growth at 10 µM [33]: 10.4%; inhibition of growth at 10 µM [34]: -1.35%; inhibition of growth at 10 µM [35]: 18.3%; inhibition of growth at 10 µM [36]: 10.1%; inhibition of growth at 10 µM [37]: 13.4%; inhibition of growth at 10 µM [38]: 10.7%; inhibition of growth at 10 µM [39]: 3.84% |
| O=C1Nc2c(sc3ccc(Cl)cc23)C(c2cccc([N+](=O)[O-])c2)N1 (configuration not stated) | 21.8% | 10.8% | -1.08% | 15.6% | -1.33% | 3.88% | 25.3% | -3.52% | 4.06% | 16.6% | -8.11% | 12.9% | -3% | -4.61% | 15.5% | 2.85% | -4.8% | 2.62% | 7.02% | 6.5% | inhibition of growth at 10 µM [21]: 0.85%; inhibition of growth at 10 µM [22]: 17.5%; inhibition of growth at 10 µM [23]: 3.78%; inhibition of growth at 10 µM [24]: 8.51%; inhibition of growth at 10 µM [25]: 8.84%; inhibition of growth at 10 µM [26]: 6.51%; inhibition of growth at 10 µM [27]: 0.73%; inhibition of growth at 10 µM [28]: 7.07%; inhibition of growth at 10 µM [29]: 20.3%; inhibition of growth at 10 µM [30]: 20.8%; inhibition of growth at 10 µM [31]: -3.91%; inhibition of growth at 10 µM [32]: 10.4%; inhibition of growth at 10 µM [33]: 9.21%; inhibition of growth at 10 µM [34]: 1.5%; inhibition of growth at 10 µM [35]: 12.5%; inhibition of growth at 10 µM [36]: 17.8%; inhibition of growth at 10 µM [37]: 9.8%; inhibition of growth at 10 µM [38]: 22.8%; inhibition of growth at 10 µM [39]: 6.35% |
| O=[N+]([O-])c1cccc(C2c3sc4ccc(Cl)cc4c3N=C3NN=NN32)c1 (configuration not stated) | 15.4% | -11.3% | -0.5% | -11.1% | -7.9% | 6.39% | 8.75% | -1.74% | -4.72% | -4.76% | 0% | -7.43% | -2.76% | 22% | 18.1% | -10.9% | 35.8% | -10.9% | 9.57% | 3.11% | inhibition of growth at 10 µM [21]: 3.87%; inhibition of growth at 10 µM [22]: 11.5%; inhibition of growth at 10 µM [23]: -11.2%; inhibition of growth at 10 µM [24]: -8.85%; inhibition of growth at 10 µM [25]: 21.3%; inhibition of growth at 10 µM [26]: 3.96%; inhibition of growth at 10 µM [27]: -6.97%; inhibition of growth at 10 µM [28]: 9.98%; inhibition of growth at 10 µM [29]: -15.7%; inhibition of growth at 10 µM [30]: -7.25%; inhibition of growth at 10 µM [31]: 1.22%; inhibition of growth at 10 µM [32]: -3.77%; inhibition of growth at 10 µM [33]: -27.8%; inhibition of growth at 10 µM [34]: 9.64%; inhibition of growth at 10 µM [35]: -4.1%; inhibition of growth at 10 µM [36]: 12.8%; inhibition of growth at 10 µM [37]: 1.39%; inhibition of growth at 10 µM [38]: -9.67%; inhibition of growth at 10 µM [39]: -8.1% |
